In US9512087B2, “Hybrid molecules containing pharmacophores of fluconazole as antifungal agents and their preparation” (Council for Scientific & Industrial Research, priority 2011, dated 2016):
≈ marks a conversion by molar mass, not a printed value.

How the values were obtained:
Test in all cases: Antifungal MIC, broth dilution
C. albicans ATCC 24433 = type: cell-based, Candida albicans; conditions: end point 48 hours; for MIC80 / MIC50: Candida albicans, ATCC24433, RPMI 1640 with MOPS; for MIC80: read-out: Ca01 A: MIC80; for MIC50: read-out: Ca01 B: MIC50
Description: (§1) The compounds of Formula 1 were tested for antifungal activity against Candida albicans, Aspergillus niger and Fusarium proliferatum. In vitro evaluation of antifungal activity was performed by determining the minimum inhibitory concentration (MIC) following standard methods (CLSI: Reference method for broth dilution antifungal susceptibility testing of yeasts; Approved standard, second edition M27-A2, 2002; CLSI: Reference method for broth dilution antifungal susceptibility testing of filamentous fungi; Approved standard M38-A, 2002). Anti-fungal susceptibility testing of these anti-fungal compounds was done by broth dilution method using RPMI 1640 medium with MOPS buffer. Known anti-fungal agents like fluconazole and amphotericin-B were used as positive control. End points were determined after 48 hours visually and by using spectrophotometer wherever necessary. Different dilutions were tried and various sets of experiments performed. The activity parameters are enumerated in Table 5.

C. glabrata ATCC 90030 = type: cell-based; conditions: end point 48 hours; for MIC50: Nakaseomyces glabratus, ATCC90030, RPMI 1640 with MOPS, read-out: Cg01 MIC50
C. krusei ATCC 6258 = type: cell-based; conditions: end point 48 hours; for MIC50: Pichia kudriavzevii, ATCC6258, RPMI 1640 with MOPS, read-out: Ck01 MIC50
C. tropicalis ATCC 750 = type: cell-based; conditions: end point 48 hours; for MIC50: Candida tropicalis, ATCC750, RPMI 1640 with MOPS, read-out: Ct01 MIC50
C. neoformans ATCC 34664 = type: cell-based; conditions: end point 48 hours; for MIC50: Cryptococcus neoformans, ATCC34664, RPMI 1640 with MOPS, read-out: Cn01 MIC50
A. niger ATCC 16404 = type: cell-based, Aspergillus niger; conditions: end point 48 hours; for MIC50: Aspergillus niger, ATCC16404, RPMI 1640 with MOPS, read-out: An01 MIC50
Description: as §1

A. fumigatus ATCC 46645 = type: cell-based; conditions: end point 48 hours; for MIC50: Aspergillus fumigatus, ATCC46645, RPMI 1640 with MOPS, read-out: Afm01 MIC50
[1] = system: F. proliferatum ATCC 10052; type: cell-based, Fusarium proliferatum; conditions: end point 48 hours; for MIC50: Fusarium proliferatum, ATCC10052, RPMI 1640 with MOPS, read-out: Fp01 MIC50
Description: as §1

Structure (SMILES)	MIC80 (C. albicans ATCC 24433)	MIC50 (C. albicans ATCC 24433)	MIC50 (C. glabrata ATCC 90030)	MIC50 (C. krusei ATCC 6258)	MIC50 (C. tropicalis ATCC 750)	MIC50 (C. neoformans ATCC 34664)	MIC50 (A. niger ATCC 16404)	MIC50 (A. fumigatus ATCC 46645)	MIC50 [1]	Ca01 A: MIC80 (C. albicans ATCC 24433; RPMI 1640 with MOPS)	Ca01 B: MIC50 (C. albicans ATCC 24433; RPMI 1640 with MOPS)	Cg01 MIC50 (C. glabrata ATCC 90030; RPMI 1640 with MOPS)	Ck01 MIC50 (C. krusei ATCC 6258; RPMI 1640 with MOPS)	Ct01 MIC50 (C. tropicalis ATCC 750; RPMI 1640 with MOPS)	Cn01 MIC50 (C. neoformans ATCC 34664; RPMI 1640 with MOPS)	An01 MIC50 (A. niger ATCC 16404; RPMI 1640 with MOPS)	Afm01 MIC50 (A. fumigatus ATCC 46645; RPMI 1640 with MOPS)	Fp01 MIC50 ([1]; RPMI 1640 with MOPS)
O=C(/C=C/c1ccc(Cl)cc1)c1ccc(OCC(O)(Cn2cncn2)c2ccc(F)cc2)cc1 (stereo not drawn) [Compound 1A-12]	2 µg/mL (≈ 4.18 µM)	0.5 µg/mL (≈ 1.05 µM)	0.5 µg/mL (≈ 1.05 µM)	4 µg/mL (≈ 8.37 µM)	4 µg/mL (≈ 8.37 µM)	0.5 µg/mL (≈ 1.05 µM)	> 4 µg/mL	> 4 µg/mL	> 4 µg/mL									
COc1ccccc1/C=C/C(=O)c1ccc(OCC(O)(Cn2cncn2)c2ccc(F)cc2F)cc1 (stereo not drawn) [Compound 1A-3]	0.5 µg/mL (≈ 1.02 µM)	0.25 µg/mL (≈ 0.509 µM)	0.5 µg/mL (≈ 1.02 µM)	> 8 µg/mL	2 µg/mL (≈ 4.07 µM)	8 µg/mL (≈ 16.3 µM)	> 8 µg/mL	> 8 µg/mL	> 8 µg/mL									
CCCCCCCCOc1ccc(/C=C/C(=O)c2ccc(OCC(O)(Cn3cncn3)c3ccc(F)cc3F)cc2)cc1 (stereo not drawn) [Compound 1A-9]										>2 µg/mL	>2 µg/mL	>2 µg/mL	>2 µg/mL	>2 µg/mL	>2 µg/mL	>2 µg/mL	>2 µg/mL	>2 µg/mL
COc1cc(/C=C/C(=O)c2ccc(OCC(O)(Cn3cncn3)c3ccc(F)cc3F)cc2)cc(OC)c1OC (stereo not drawn) [Compound 1A-5]	1 µg/mL (≈ 1.81 µM)	0.25 µg/mL (≈ 0.453 µM)	1 µg/mL (≈ 1.81 µM)	> 4 µg/mL	1 µg/mL (≈ 1.81 µM)	> 4 µg/mL	> 4 µg/mL	> 4 µg/mL	> 4 µg/mL									
O=C(/C=C/c1ccccc1)c1ccc(OCC(O)(Cn2cncn2)c2ccc(F)cc2F)cc1 (stereo not drawn) [Compound 1A-1]	0.12 µg/mL (≈ 0.26 µM)	0.06 µg/mL (≈ 0.13 µM)	0.25 µg/mL (≈ 0.542 µM)	> 2 µg/mL	0.5 µg/mL (≈ 1.08 µM)	1 µg/mL (≈ 2.17 µM)	> 2 µg/mL	> 2 µg/mL	> 2 µg/mL									

Other lines, results leading:

MIC80 (C. albicans ATCC 24433)	MIC50 (C. albicans ATCC 24433)	MIC50 (C. glabrata ATCC 90030)	MIC50 (C. krusei ATCC 6258)	MIC50 (C. tropicalis ATCC 750)	MIC50 (C. neoformans ATCC 34664)	MIC50 (A. niger ATCC 16404)	MIC50 (A. fumigatus ATCC 46645)	MIC50 [1]	Ca01 A: MIC80 (C. albicans ATCC 24433; RPMI 1640 with MOPS)	Ca01 B: MIC50 (C. albicans ATCC 24433; RPMI 1640 with MOPS)	Cg01 MIC50 (C. glabrata ATCC 90030; RPMI 1640 with MOPS)	Ck01 MIC50 (C. krusei ATCC 6258; RPMI 1640 with MOPS)	Ct01 MIC50 (C. tropicalis ATCC 750; RPMI 1640 with MOPS)	Cn01 MIC50 (C. neoformans ATCC 34664; RPMI 1640 with MOPS)	An01 MIC50 (A. niger ATCC 16404; RPMI 1640 with MOPS)	Afm01 MIC50 (A. fumigatus ATCC 46645; RPMI 1640 with MOPS)	Fp01 MIC50 ([1]; RPMI 1640 with MOPS)	Structure (SMILES)
0.12 µg/mL (≈ 0.257 µM)	0.03 µg/mL (≈ 0.0642 µM)	0.03 µg/mL (≈ 0.0642 µM)	2 µg/mL (≈ 4.28 µM)	0.12 µg/mL (≈ 0.257 µM)	0.5 µg/mL (≈ 1.07 µM)	> 4 µg/mL	> 4 µg/mL	> 4 µg/mL										O=C(/C=C/c1cccs1)c1ccc(OC[C@](O)(Cn2cncn2)c2ccc(F)cc2F)cc1 [R-(−)-1A-13]
> 4 µg/mL	> 4 µg/mL	> 4 µg/mL	> 4 µg/mL	> 4 µg/mL	> 4 µg/mL	> 4 µg/mL	> 4 µg/mL	> 4 µg/mL										C=CCOC(COc1ccc(C(=O)/C=C/c2ccc(Cl)cc2Cl)cc1)(Cn1cncn1)c1ccc(F)cc1F (stereo not drawn) [Compound 1A-18, (E)-1-(4-(2-(Allyloxy)-2-(2,4-difluorophenyl)-3-(1H-1,2,4-triazol-1-yl)propoxy)phenyl)-3-(2,4-dichlorophenyl)prop-2-en-1-one]
1 µg/mL (≈ 2.03 µM)	0.5 µg/mL (≈ 1.02 µM)	1 µg/mL (≈ 2.03 µM)	> 4 µg/mL	2 µg/mL (≈ 4.07 µM)	2 µg/mL (≈ 4.07 µM)	> 4 µg/mL	> 4 µg/mL	> 4 µg/mL										COc1ccc(/C=C/C(=O)c2ccc(OC[C@@](O)(Cn3cncn3)c3ccc(F)cc3F)cc2)cc1 [S-(+)-1A-2]
0.5 µg/mL (≈ 1.07 µM)	0.25 µg/mL (≈ 0.535 µM)	0.25 µg/mL (≈ 0.535 µM)	> 4 µg/mL	2 µg/mL (≈ 4.28 µM)	4 µg/mL (≈ 8.56 µM)	> 4 µg/mL	> 4 µg/mL	> 4 µg/mL										O=C(/C=C/c1cccs1)c1ccc(OC[C@@](O)(Cn2cncn2)c2ccc(F)cc2F)cc1 [S-(+)-1A-13]
0.5 µg/mL (≈ 0.977 µM)	0.25 µg/mL (≈ 0.489 µM)	0.5 µg/mL (≈ 0.977 µM)	1 µg/mL (≈ 1.95 µM)	0.5 µg/mL (≈ 0.977 µM)	0.5 µg/mL (≈ 0.977 µM)	> 4 µg/mL	> 4 µg/mL	> 4 µg/mL										O=C(/C=C/c1ccc2ccccc2c1)c1ccc(OCC(O)(Cn2cncn2)c2ccc(F)cc2F)cc1 (stereo not drawn) [Compound 1A-14]
0.25 µg/mL (≈ 0.549 µM)	0.12 µg/mL (≈ 0.263 µM)	0.06 µg/mL (≈ 0.132 µM)	1 µg/mL (≈ 2.2 µM)	2 µg/mL (≈ 4.39 µM)	0.5 µg/mL (≈ 1.1 µM)	> 4 µg/mL	> 4 µg/mL	> 4 µg/mL										CCCCCC(=O)/C=C/c1ccc(OCC(O)(Cn2cncn2)c2ccc(F)cc2F)cc1 (stereo not drawn) [Compound 1A-26]
